Assay results reported in article PMC8040265, “A polysaccharide utilization locus from the gut bacterium Dysgonomonas mossii encodes functionally distinct carbohydrate esterases” (The Journal of Biological Chemistry, 2021).

Molecular target: T1, DmCE1B_ct (Dysgonomonas mossii, UniProt F8X1N1)
T1 construct: gene HMPREF9456_02279; dimer; IMAC purified from E. coli BL21(DE3)
Test: X-ray crystal structure of soaked crystal, […] Å
Format: binding
Details: crystal soak with saturating MFA, 0.1 M Tris pH 8, 25% w/v PEG 6000; one MFA at edge of active site groove, one at dimer interface

T1 sequence (F8X1N1 294-656): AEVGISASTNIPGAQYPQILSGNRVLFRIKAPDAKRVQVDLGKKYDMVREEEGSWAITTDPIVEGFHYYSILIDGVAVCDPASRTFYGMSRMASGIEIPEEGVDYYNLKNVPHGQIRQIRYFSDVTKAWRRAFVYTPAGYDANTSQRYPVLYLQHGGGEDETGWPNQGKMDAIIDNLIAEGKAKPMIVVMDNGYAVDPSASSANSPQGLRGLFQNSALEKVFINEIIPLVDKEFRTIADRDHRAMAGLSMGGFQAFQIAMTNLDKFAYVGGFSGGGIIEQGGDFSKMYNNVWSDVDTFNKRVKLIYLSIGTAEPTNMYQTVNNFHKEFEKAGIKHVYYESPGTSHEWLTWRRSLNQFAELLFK

## COC(=O)/C=C/c1ccc(O)c(OC)c1 [MFA]
  X-ray crystal structure of soaked crystal, 1.41 Å: Two MFA molecules were observed and modeled (Fig. S15A)
